# Assay results from patent US20170258747A1, “GLUTAMINE ENRICHED NUTRITIONAL COMPOSITION FOR PRETERM INFANTS” (N.V. Nutricia, priority 2012, published 2017).
# How the values were obtained:
# [1] = test system: very preterm and/or VLBW children; assay: Intellectual development, short form of WISC-III; assay type: in vivo, human; conditions: mean, sd 17.7, n=30; scores normalised with a mean of 100 (SD 15); p=0.12 versus control
# Description: Intellectual development was measured in the same group of infants as example 1 by a short form of the Wechsler Intelligence Scale for Children-III (WISC-III), including the subtests Vocabulary and Block Design. […]. Both subtests correlate strongly (r 0.90) with full-scale intelligence quotient (FSIQ). Scores on this test were normalised with a mean of 100 (SD 15). There was a trend (p=0.12 when adjusted for gestational age and socioeconomic status) in improved IQ (WISC-III FSIQ being 102, sd 17.7, n=30) in the glutamine group compared to the control group (WISC-III FSIQ 93.6 sd 17.2 n=34).
# VLBW infants [2] = conditions: in the first year of life and at the age of 6; cited from earlier work
# [3] = test system: very preterm and/or VLBW children; assay: Brain cortical volumes by MRI at school age after enteral glutamine supplementation, days 3-30 of life; assay type: in vivo, human
# Description: (§1) A randomized, placebo controlled clinical trial was performed. For a detailed protocol of the study, see van den Berg et al, 2004, Glutamine-enriched enteral nutrition in very low birth weight infants. Design of a double-blind randomised controlled trial [ISRCTN73254583], BMC Pediatrics 4:17.
# (§2) In short: Infants with a gestational age <32 weeks and/or birth weight <1500 g were enrolled. In total 52 very preterm and/or VLBW children, which had taken part in a randomized controlled trial on enteral glutamine supplementation between day 3 and 30 of life, participated in this follow up study at the mean age of 8.6 years (SD=0.3 years). 30 infants were in the control group and 22 in the glutamine supplementation group. Also comparisons were made with a control group (n=52) of term born infants.
# (§3) The glutamine nutritional supplement was in powder form and contained 82 wt. % L-glutamine in total and 18 wt. % glucose (nitrogen 15.5 wt/wt %; 371 kcal/100 g), whereas the isonitrogenous control powder contained 100 wt. % L-alanine (nitrogen 15.7 wt/wt %, 435 kcal/100 g). The two powders were indistinguishable by appearance, colour and smell. Between days 3 and 30 of life, supplementation was administered in increasing doses to a maximum of 0.3 g/kg glutamine per day in the glutamine group. Initially, the supplementation dose was based on birth weight. After 2 weeks the dose was adjusted to actual body weight. Two members of the nursing staff daily added supplementation to breast milk or to preterm formula (Nenatal®, Nutricia Nederland B.V., Zoetermeer, The Netherlands), according to the parents' choice. Per 100 ml, Nenatal® provides 78 kcal, 2.1 g protein (casein-whey protein weight ratio 40:60), 4.4 g fat and 7.5 g carbohydrate. […] Protocol guidelines for the introduction of parenteral and enteral nutrition are disclosed in van den Berg et al., 2004.
# (§4) All statistical analyses are performed on an intention to treat basis. In addition, alternative per protocol analyses are performed, excluding all patients who are not treated according to protocol, defined as more than 3 consecutive days or more than a total of 5 days on minimal enteral feeding or without supplementation. A p value<0.05 is considered significant (two-tailed). SPSS 9.0 (SPSS Inc., Chicago, Ill., USA) and STAT 7.0 (Stat-Corp LP, College Station, Tex., USA) are used for data analysis. A p value of 0.1 or below is considered to represent a realistic effect, a trend. Due to the small size of the groups also the effect size is taken into account. An effect size above 0.4 is considered to represent a trend.
# Brain cortical volumes were determined by MRI and calculated using FSL software “FAST” and corrected for age at MM scan, gender and body weight for gestational age. […] This was the case for intracranial volume, grey matter, white matter and cerebellum volume.
# [4] = test system: very preterm and/or VLBW children; assay: Brain subcortical volumes by MRI at school age after enteral glutamine supplementation, days 3-30 of life; assay type: in vivo, human
# Description: as §1, §2, §3, §4
# Brain subcortical volumes were determined by Mill and calculated using FSL software “FAST” and corrected for age at Mill scan, gender and body weight for gestational age. […] This was the case for the brain stem, thalamus, putamen, caudate nucleus, hippocampus, globus pallidum, amygdale, nucleus accumbens and the corpus callosum volume.
# [5] = test system: glutamine fed preterm group; assay: fMRI neuronal activation later in life; assay type: in vivo, human
# Source text: The improved brain development established at school age is indicative for improvement in neurocognitive functioning, behavioral and/or motional development, improving neuronal activation during interference task or during visuo-spatial working memory task, improvement of visuomotor skills (caterpillar-task).
# VLBL infants = conditions: supplementation with glutamine in VLBL infants; cited from earlier work
# VLBW infants [6] = conditions: at age of 2 years; cited from earlier work
# [7] = glutamine supplemented versus control preterm group
# [8] = mean, MRI at mean age 8.6 years, max 0.3 g/kg glutamine per day, days 3-30 of life
# [9] = mean, MRI at mean age 8.6 years
smiles,measurement,setting,value
"NC(=O)CC[C@H](N)C(=O)O [Glutamine, L-glutamine]",WISC-III FSIQ,[1],102
same,Risk for atopic dermatitis,VLBW infants [2],decreases
same,"Effect size, cerebellum",[3]; control versus glutamine group,0.41
same,"Effect size, grey matter",[3]; control versus glutamine group,0.29
same,"Effect size, intracranial volume",[3]; control versus glutamine group,0.48
same,"Effect size, white matter",[3]; control versus glutamine group,0.54
same,Cerebellum volume compared with preterm control group,[3]; [7],tendency for an increase
same,Cortical brain volumes compared with preterm control group,[3]; [7],higher than in the control group
same,Intracranial volume compared with preterm control group,[3]; [7],tendency for an increase
same,White matter volume compared with preterm control group,[3]; [7],significantly higher
same,Cerebellum volume,[3]; [8],110.89 cm^3
same,Grey matter volume,[3]; [8],727.4 cm^3
same,Intracranial volume,[3]; [8],1649.8 cm^3
same,White matter volume,[3]; [8],496.5 cm^3
same,"Effect size, amygdala",[4]; control versus glutamine group,0.46
same,"Effect size, brain stem",[4]; control versus glutamine group,0.54
same,"Effect size, caudate nucleus",[4]; control versus glutamine group,0.10
same,"Effect size, corpus callosum",[4]; control versus glutamine group,0.18
same,"Effect size, globus pallidum",[4]; control versus glutamine group,0.48
same,"Effect size, hippocampus",[4]; control versus glutamine group,0.47
same,"Effect size, nucleus accumbens",[4]; control versus glutamine group,0.04
same,"Effect size, putamen",[4]; control versus glutamine group,0.55
same,"Effect size, subcortical structures",[4]; control versus glutamine group,0.50
same,"Effect size, thalamus",[4]; control versus glutamine group,0.39
same,Brain stem volume compared with preterm control group,[4]; [7],significantly higher
same,Hippocampus volume compared with preterm control group,[4]; [7],significantly higher
same,Subcortical volume compared with preterm control group,[4]; [7],higher
same,Amygdala volume,[4]; [9],2.3 cm^3
same,Brain stem volume,[4]; [9],18.9 cm^3
same,Caudate Nucleus volume,[4]; [9],7.4 cm^3
same,Corpus callosum,[4]; [9],535.7 mm^2
same,Globus Pallidum volume,[4]; [9],3.5 cm^3
same,Hippocampus volume,[4]; [9],7.2 cm^3
same,Nucleus accumbens volume,[4]; [9],1.0 cm^3
same,Putamen volume,[4]; [9],10.9 cm^3
same,Subcortical structures volume,[4]; [9],66.5 cm^3
same,Thalamus volume,[4]; [9],15.3 cm^3
same,Neuronal activation (fMRI),[5],more similar to term infants
same,Infectious morbidity,VLBL infants,lowers
same,Neurodevelopment outcome,VLBW infants [6],no effect
